Measured values from ChEMBL document CHEMBL1811847, “Initial efforts toward the optimization of arylomycins for antibiotic activity” (2011).
Values after ≈ are worked out from the molar mass of the structure shown.

Assays:
Assay type in all cases: functional
Staphylococcus aureus [1] = experiment: Antibacterial activity against Staphylococcus aureus NCTC 8325 harboring lepB P29S mutant after 24 hrs by CLSI broth microdilution method; settings: NCTC 8325, 24 h
[2] = system: Staphylococcus epidermidis; experiment: Antibacterial activity against wild-type Staphylococcus epidermidis RP62A after 24 hrs by CLSI broth microdilution method
Escherichia coli [3] = experiment: Antibacterial activity against Escherichia coli MG1655 after 24 hrs by CLSI broth microdilution method; settings: MG1655, 24 h
[4] = system: Staphylococcus epidermidis; experiment: Antibacterial activity against Staphylococcus epidermidis RP62A harboring spsB S29P mutant after 24 hrs by CLSI broth microdilution method
Staphylococcus aureus [5] = experiment: Antibacterial activity against wild-type Staphylococcus aureus NCTC 8325 after 24 hrs by CLSI broth microdilution method; settings: NCTC 8325, 24 h
Pseudomonas aeruginosa [6] = experiment: Antibacterial activity against wild-type Pseudomonas aeruginosa PAO1 after 24 hrs by CLSI broth microdilution method; settings: PAO1, 24 h
Escherichia coli [7] = experiment: Antibacterial activity against Escherichia coli MG1655 harboring lepB P84L mutant after 24 hrs by CLSI broth microdilution method; settings: MG1655, 24 h
Staphylococcus aureus [8] = experiment: Antibacterial activity against methicillin-resistant Staphylococcus aureus isolate USA300
Pseudomonas aeruginosa [9] = experiment: Antibacterial activity against Pseudomonas aeruginosa PAO1 harboring lepB P84L mutant after 24 hrs by CLSI broth microdilution method; settings: PAO1, 24 h

| Compound | MIC (Staphylococcus aureus [1]) | MIC [2] | MIC (Escherichia coli [3]) | MIC [4] | MIC (Staphylococcus aureus [5]) | MIC (Pseudomonas aeruginosa [6]) | MIC (Escherichia coli [7]) | MIC (Staphylococcus aureus [8]) | MIC (Pseudomonas aeruginosa [9]) |
| --- | --- | --- | --- | --- | --- | --- | --- | --- | --- |
| CCc1ccc(-c2ccc(C(=O)N(C)[C@H](CO)C(=O)N[C@H](C)C(=O)NCC(=O)N(C)[C@@H]3C(=O)N[C@@H](C)C(=O)N[C@H](C(=O)O)Cc4ccc(O)c(c4)-c4cc3ccc4O)cc2)cc1 | 64 µg/mL (≈ 75.2 µM) | 8 µg/mL (≈ 9.4 µM) | > 64 µg/mL | > 64 µg/mL | > 64 µg/mL | > 64 µg/mL | 16 µg/mL (≈ 18.8 µM) | – | – |
| CCCCCCCCCCCC(=O)N(C)[C@H](CO)C(=O)N[C@H](C)C(=O)NCC(=O)N(C)[C@@H]1C(=O)N[C@@H](C)C(=O)N[C@H](C(=O)O)Cc2ccc(O)c(c2)-c2cc1ccc2O | – | – | > 64 µg/mL | > 64 µg/mL | > 64 µg/mL | > 64 µg/mL | – | – | – |
| CC(C)CCCCCCCCC(=O)N(C)[C@H](CO)C(=O)N[C@H](C)C(=O)NCC(=O)N(C)[C@@H]1C(=O)N[C@@H](C)C(=O)N[C@H](C(=O)O)Cc2ccc(O)c(c2)-c2cc1ccc2O [ARYLOMYCIN A2] | – | – | – | – | – | – | – | 16 µg/mL (≈ 19.4 µM) | – |
| CCCCCCCCc1ccc(C(=O)N(C)[C@H](CO)C(=O)N[C@H](C)C(=O)NCC(=O)N(C)[C@@H]2C(=O)N[C@@H](C)C(=O)N[C@H](C(=O)O)Cc3ccc(O)c(c3)-c3cc2ccc3O)cc1 | 8 µg/mL (≈ 9.31 µM) | 1 µg/mL (≈ 1.16 µM) | > 64 µg/mL | > 64 µg/mL | > 64 µg/mL | > 64 µg/mL | 8 µg/mL (≈ 9.31 µM) | – | 64 µg/mL (≈ 74.5 µM) |
| CCCCCCc1ccc(-c2ccc(C(=O)N(C)[C@H](CO)C(=O)N[C@H](C)C(=O)NCC(=O)N(C)[C@@H]3C(=O)N[C@@H](C)C(=O)N[C@H](C(=O)O)Cc4ccc(O)c(c4)-c4cc3ccc4O)cc2)cc1 | 8 µg/mL (≈ 8.82 µM) | 0.5 µg/mL (≈ 0.551 µM) | > 64 µg/mL | 32 µg/mL (≈ 35.3 µM) | 64 µg/mL (≈ 70.6 µM) | > 64 µg/mL | 1 µg/mL (≈ 1.1 µM) | – | – |
| CCCCCCCCCCCCCCCC(=O)N1C[C@@H](O)C[C@H]1C(=O)N[C@@H](C)C(=O)NCC(=O)N(C)[C@@H]1C(=O)N[C@@H](C)C(=O)N[C@H](C(=O)O)Cc2ccc(O)c(c2)-c2cc1ccc2O | 4 µg/mL (≈ 4.48 µM) | 4 µg/mL (≈ 4.48 µM) | > 64 µg/mL | 8 µg/mL (≈ 8.96 µM) | > 64 µg/mL | > 64 µg/mL | – | – | – |
| CCCCCCCCCCCCCCCC(=O)N(C)[C@@H](CO)CCC(=O)N[C@@H](C)C(=O)NCC(=O)N(C)[C@@H]1C(=O)N[C@@H](C)C(=O)N[C@H](C(=O)O)Cc2ccc(O)c(c2)-c2cc1ccc2O | 4 µg/mL (≈ 4.4 µM) | 8 µg/mL (≈ 8.8 µM) | > 64 µg/mL | 16 µg/mL (≈ 17.6 µM) | 16 µg/mL (≈ 17.6 µM) | > 64 µg/mL | – | – | – |
| C[C@@H]1NC(=O)[C@@H](N(C)C(=O)CNC(=O)[C@@H](C)NC(=O)[C@@H](CO)N(C)C(=O)Cc2ccc(-c3ccccc3)cc2)c2ccc(O)c(c2)-c2cc(ccc2O)C[C@@H](C(=O)O)NC1=O | – | 32 µg/mL (≈ 38.2 µM) | > 64 µg/mL | > 64 µg/mL | > 64 µg/mL | > 64 µg/mL | – | – | – |
| CCCCCCCCCCCCCCC(C)C(=O)N[C@@H](C)C(=O)NCC(=O)N(C)[C@@H]1C(=O)N[C@@H](C)C(=O)N[C@H](C(=O)O)Cc2ccc(O)c(c2)-c2cc1ccc2O (mixture of isomers) | – | 8 µg/mL | > 64 µg/mL | > 64 µg/mL | > 64 µg/mL | > 64 µg/mL | – | – | – |
| CCCCCCc1ccc(C(=O)N(C)[C@H](CO)C(=O)N[C@H](C)C(=O)NCC(=O)N(C)[C@@H]2C(=O)N[C@@H](C)C(=O)N[C@H](C(=O)O)Cc3ccc(O)c(c3)-c3cc2ccc3O)cc1 | 64 µg/mL (≈ 77 µM) | 8 µg/mL (≈ 9.63 µM) | > 64 µg/mL | > 64 µg/mL | > 64 µg/mL | > 64 µg/mL | 32 µg/mL (≈ 38.5 µM) | – | – |
| CCCCCCCCCCCCCCCC(=O)N[C@@H](CO)C(=O)N[C@@H](C)C(=O)NCC(=O)N(C)[C@@H]1C(=O)N[C@@H](C)C(=O)N[C@H](C(=O)O)Cc2ccc(O)c(c2)-c2cc1ccc2O | – | – | > 64 µg/mL | – | > 64 µg/mL | > 64 µg/mL | – | – | – |
| CCCCCCCCc1ccc(-c2ccc(C(=O)N(C)[C@H](CO)C(=O)N[C@H](C)C(=O)NCC(=O)N(C)[C@@H]3C(=O)N[C@@H](C)C(=O)N[C@H](C(=O)O)Cc4ccc(O)c(c4)-c4cc3ccc4O)cc2)cc1 | 8 µg/mL (≈ 8.56 µM) | 1 µg/mL (≈ 1.07 µM) | > 64 µg/mL | 16 µg/mL (≈ 17.1 µM) | 16 µg/mL (≈ 17.1 µM) | > 64 µg/mL | 1 µg/mL (≈ 1.07 µM) | – | – |
| CCCCCCCCCCCCCCCC(=O)N(C)[C@@H](CO)C(=O)NCC(C)C(=O)NCC(=O)N(C)[C@@H]1C(=O)N[C@@H](C)C(=O)N[C@H](C(=O)O)Cc2ccc(O)c(c2)-c2cc1ccc2O (mixture of isomers) | – | 8 µg/mL | > 64 µg/mL | 16 µg/mL | > 64 µg/mL | > 64 µg/mL | 8 µg/mL | – | 16 µg/mL |
| C[C@@H]1NC(=O)[C@@H](N(C)C(=O)CNC(=O)[C@@H](C)NC(=O)[C@@H](CO)N(C)C(=O)Cc2ccc3ccccc3c2)c2ccc(O)c(c2)-c2cc(ccc2O)C[C@@H](C(=O)O)NC1=O | – | > 64 µg/mL | > 64 µg/mL | – | > 64 µg/mL | > 64 µg/mL | – | – | – |
| CCCCCCCCCCCCCCCC(=O)N[C@@H](CO)C(=O)N(C)[C@@H](C)C(=O)N(C)CC(=O)N(C)[C@@H]1C(=O)N[C@@H](C)C(=O)N[C@H](C(=O)O)Cc2ccc(O)c(c2)-c2cc1ccc2O | – | > 64 µg/mL | > 64 µg/mL | – | > 64 µg/mL | > 64 µg/mL | – | – | – |
| CCCCCCCCCCCCCCCC(=O)N(C)[C@@H](CO)C(=O)NCCC(C)C(=O)NCC(=O)N(C)[C@@H]1C(=O)N[C@@H](C)C(=O)N[C@H](C(=O)O)Cc2ccc(O)c(c2)-c2cc1ccc2O (mixture of isomers) | 8 µg/mL | 8 µg/mL | > 64 µg/mL | 8 µg/mL | > 64 µg/mL | > 64 µg/mL | – | – | – |
| CCCCCCCCCCc1ccc(C(=O)N(C)[C@H](CO)C(=O)N[C@H](C)C(=O)NCC(=O)N(C)[C@@H]2C(=O)N[C@@H](C)C(=O)N[C@H](C(=O)O)Cc3ccc(O)c(c3)-c3cc2ccc3O)cc1 | 4 µg/mL (≈ 4.51 µM) | 0.5 µg/mL (≈ 0.564 µM) | > 64 µg/mL | 16 µg/mL (≈ 18 µM) | 32 µg/mL (≈ 36.1 µM) | > 64 µg/mL | 2 µg/mL (≈ 2.25 µM) | – | 16 µg/mL (≈ 18 µM) |
| CCCCCCCCCC(=O)N(C)[C@H](CO)C(=O)N[C@H](C)C(=O)NCC(=O)N(C)[C@@H]1C(=O)N[C@@H](C)C(=O)N[C@H](C(=O)O)Cc2ccc(O)c(c2)-c2cc1ccc2O | – | – | > 64 µg/mL | – | > 64 µg/mL | > 64 µg/mL | – | – | – |
| CCCCc1ccc(-c2ccc(C(=O)N(C)[C@H](CO)C(=O)N[C@H](C)C(=O)NCC(=O)N(C)[C@@H]3C(=O)N[C@@H](C)C(=O)N[C@H](C(=O)O)Cc4ccc(O)c(c4)-c4cc3ccc4O)cc2)cc1 | 16 µg/mL (≈ 18.2 µM) | 1 µg/mL (≈ 1.14 µM) | > 64 µg/mL | > 64 µg/mL | > 64 µg/mL | > 64 µg/mL | 4 µg/mL (≈ 4.55 µM) | – | – |
| C[C@@H]1NC(=O)[C@@H](N(C)C(=O)CNC(=O)[C@@H](C)NC(=O)[C@@H](CO)N(C)C(=O)c2ccc(-c3ccccc3)cc2)c2ccc(O)c(c2)-c2cc(ccc2O)C[C@@H](C(=O)O)NC1=O | – | 64 µg/mL (≈ 77.8 µM) | > 64 µg/mL | > 64 µg/mL | > 64 µg/mL | > 64 µg/mL | – | – | – |
| CCCCCCCCCCCCCCCC(=O)N(C)[C@H](CO)C(=O)N[C@H](C)C(=O)NCC(=O)N(C)[C@@H]1C(=O)N[C@@H](C)C(=O)N[C@H](C(=O)O)Cc2ccc(O)c(c2)-c2cc1ccc2O [ARYLOMYCIN C16] | – | 0.5 µg/mL (≈ 0.567 µM) | > 64 µg/mL | – | > 64 µg/mL | > 64 µg/mL | – | 16 µg/mL (≈ 18.2 µM) | 8 µg/mL (≈ 9.08 µM) |
| CCCCCCCCCCCCCCCC(=O)N(C)[C@@H](CO)CC(=O)N[C@@H](C)C(=O)NCC(=O)N(C)[C@@H]1C(=O)N[C@@H](C)C(=O)N[C@H](C(=O)O)Cc2ccc(O)c(c2)-c2cc1ccc2O | 16 µg/mL (≈ 17.9 µM) | 4 µg/mL (≈ 4.47 µM) | > 64 µg/mL | 8 µg/mL (≈ 8.94 µM) | 64 µg/mL (≈ 71.5 µM) | > 64 µg/mL | – | – | – |
| CCCCCCCCCCCCCCCCCC(=O)N(C)[C@H](CO)C(=O)N[C@H](C)C(=O)NCC(=O)N(C)[C@@H]1C(=O)N[C@@H](C)C(=O)N[C@H](C(=O)O)Cc2ccc(O)c(c2)-c2cc1ccc2O | – | – | > 64 µg/mL | – | > 64 µg/mL | > 64 µg/mL | – | – | – |
| CCCCCCCC(=O)N(C)[C@H](CO)C(=O)N[C@H](C)C(=O)NCC(=O)N(C)[C@@H]1C(=O)N[C@@H](C)C(=O)N[C@H](C(=O)O)Cc2ccc(O)c(c2)-c2cc1ccc2O | – | – | > 64 µg/mL | – | > 64 µg/mL | > 64 µg/mL | – | – | – |
